Reference: ChEMBL document CHEMBL1135116, “Heterocyclic nucleoside analogues: design and synthesis of antiviral, modified nucleosides containing isoxazole heterocycles” (Bioorg Med Chem Lett, 2002)
Converted amounts (≈) assume the structure as drawn.

What was measured:
[1] = tested on: Vesicular stomatitis virus; experiment: Tested for its anti-polio activity against Vesicular stomatitis virus; type: functional, organism-based
[2] = tested on: Coxsackievirus B3; experiment: Selectivity index as the ratio of CC50/EC50 against Coxsackie B virus type-3; type: functional
[3] = tested on: Vesicular stomatitis virus; experiment: Selectivity index as the ratio of CC50/EC50 against Vesicular stomatitis virus; type: functional
[4] = tested on: Coxsackievirus B3; experiment: Tested for its anti-polio activity against Coxsackie B virus type-3; type: functional, organism-based; settings: Enterovirus B

CC(C)[C@H](NC(=O)OC(C)(C)C)c1cc(Cn2ccc(=O)n(C(=O)c3ccccc3)c2=O)on1
EC50 [1]: 80 µg/mL (≈ 171 µM)
Selectivity index [2]: 1.02
Selectivity index [3]: 1.25
EC50 [4]: 98.1 µg/mL (≈ 209 µM)

NC(=O)c1ncn([C@@H]2O[C@H](CO)[C@@H](O)[C@H]2O)n1 [RIBAVIRIN]
EC50 [1]: 15.6 µg/mL (≈ 64 µM)
Selectivity index [2]: 5.58
Selectivity index [3]: 27.26
EC50 [4]: 92.5 µg/mL (≈ 379 µM)

Cc1cn(Cc2cc([C@H](Cc3ccccc3)NC(=O)OC(C)(C)C)no2)c(=O)n(C(=O)c2ccccc2)c1=O
EC50 [1]: 7.94 µg/mL (≈ 15 µM)
Selectivity index [2]: 2.46
Selectivity index [3]: 3.29
EC50 [4]: 10.6 µg/mL (≈ 20 µM)
